Legend:
Format in all cases: functional, cell-based
[1] = Cytotoxicity against mouse P388D1 cells by calcein AM/[…] fluorometric detection
DU-145 = assay: Cytotoxicity against human Du145 cells by calcein AM/[…] fluorometric detection
HCT-15 = assay: Cytotoxicity against human HCT15 cells by calcein AM/[…] fluorometric detection
HT-29 = assay: Cytotoxicity against human HT29 cells by calcein AM/[…] fluorometric detection
MCF7 = assay: Cytotoxicity against human MCF7 cells by calcein AM/[…] fluorometric detection
A549 = assay: Cytotoxicity against human A549 cells by calcein AM/[…] fluorometric detection

For C/C=C/C=C/c1cc2cc3c(c(O)c2c(=O)[nH]1)[C@@]1(CC3)C(=O)C(=O)c2c(c(O)c3c(O)c(OC)cc(O)c3c2O)C1=O [FDM E], which EC50 [1] is on record?
The EC50 was 170 nM.

What about the EC50 (DU-145) of the same compound?
Its EC50 is 8100 nM.

What about the EC50 (HCT-15) of the same compound?
The EC50 was 4000 nM.

And the EC50 (HT-29)?
The EC50 was 3600 nM.

What about the EC50 (MCF7) of the same compound?
Its EC50 is 7300 nM.

What about the EC50 (A549) of the same compound?
The EC50 was 4100 nM.

For C/C=C/C=C/c1cc2cc3c(c(O)c2c(=O)[nH]1)[C@@]1(CC3)C(=O)c2c(O)c3c(c(O)c2C1=O)C(=O)C(OC)=CC3=O [FDM A], which EC50 [1] is on record?
Its EC50 is 50 nM.

And the EC50 (DU-145)?
Its EC50 is 2700 nM.

What about the EC50 (HCT-15) of the same compound?
Its EC50 is 2400 nM.

And the EC50 (HT-29)?
The EC50 was 570 nM.

What about the EC50 (MCF7) of the same compound?
The EC50 was 360 nM.

And the EC50 (A549)?
Its EC50 is 1800 nM.
